One data set deals with T1, PI5P4Kγ+ (Homo sapiens, UniProt Q8TBX8, D138G/D197E/E133P/E135D/E153T/E196G/G136S/G139A/N195G/S132L/S134N).
T1 construct: GST (N, cleaved yes); made in house; host or cells: E. coli BL21(DE3), pGEX6P
T1 sequence (Q8TBX8 with tags, fused parts or gaps INS131LPN/S132D/E133S/S134Q/E135A/G136R/D138G/G139A/E153T/N195G/E196G/D197E): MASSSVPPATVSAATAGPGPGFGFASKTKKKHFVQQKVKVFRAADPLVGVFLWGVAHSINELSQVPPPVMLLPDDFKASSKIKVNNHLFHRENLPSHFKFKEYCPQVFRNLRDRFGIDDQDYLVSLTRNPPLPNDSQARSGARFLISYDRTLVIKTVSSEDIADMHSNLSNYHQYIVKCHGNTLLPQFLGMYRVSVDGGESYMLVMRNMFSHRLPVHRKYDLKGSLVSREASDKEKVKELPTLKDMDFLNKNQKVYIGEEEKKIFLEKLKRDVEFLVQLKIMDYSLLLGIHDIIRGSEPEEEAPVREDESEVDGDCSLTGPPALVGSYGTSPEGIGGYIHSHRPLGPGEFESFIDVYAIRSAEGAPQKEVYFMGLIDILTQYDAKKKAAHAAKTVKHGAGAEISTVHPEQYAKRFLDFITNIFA
In words: ADP-Glo inhibition assay. Format: biochemical. To be noted: for IC50: ADP-Glo; for PI5P4Kγ+ LE: ligand efficiency from PI5P4Kγ+ pIC50. As for the experimental part: Recombinant mutant PI5P4Kγ+ was prepared essentially as described previously.[25] […] Cultures were induced with 0.4 mM IPTG and probe sonicated in the presence of protease inhibitors. The GST fusion protein of PI5P4Kγ+ was harvested by binding to glutathione sepharose beads (Cytiva) and cleaved in situ with 50U of PreScission protease (Cytiva) for 4 h at 4 °C. The cleaved protein was further purified by size-exclusion chromatography (AKTA Pure, Cytiva). The protein purity was confirmed by sodium dodecyl sulphate–polyacrylamide gel electrophoresis, and the concentration was determined by colorimetric assay (Bio-Rad).
Statistical analysis was performed using nonparametric testing in Prism 8 (GraphPad). Activity pIC50 values and in vivo binding pEC50 values were estimated using a 4-parameter fit (Dotmatics).
On the technique in general: In ADP-Glo the light output rises with the ADP produced.

Data set [1] can be described thus: Liver microsomal stability. Format: in vitro ADME. To be noted: liver microsomes; Human liver microsomal hepatic stability; read-out: HLM t1/2. In general terms: Liver microsomes are vesicles of endoplasmic reticulum, rich in cytochrome P450 enzymes.
The next data set in a line: Plasma protein binding. In kind it is in vitro ADME. To be noted: Mouse plasma protein binding; read-out: mPPB (converted). As for the experimental part:
Plasma protein binding analysis was performed by Charles River Laboratories Inc. (ADME-SOP-90). Briefly, compounds in DMSO (10 µM, 0.5% DMSO final) were added to mouse plasma and dialysed against buffer for 4 hours at 37 °C. The compound concentration in each of the plasma and buffer compartments was determined by mass spectrometry and used to calculate the percentage compound bound. […]

Data set [2] is described as follows: Chromatographic LogD (HPLC method). Format: physicochemical. The settings on record: pH 7.4, read-out: mchrom log D7.4. Here is the method: 5-100% gradient of MeCN in 50mM NH4OAc in H 2O adjusted to pH 7.4. […]
The target of data set [3] is T2, PI5P4Kβ (Homo sapiens, UniProt P78356).
T2 sequence (P78356 1-416): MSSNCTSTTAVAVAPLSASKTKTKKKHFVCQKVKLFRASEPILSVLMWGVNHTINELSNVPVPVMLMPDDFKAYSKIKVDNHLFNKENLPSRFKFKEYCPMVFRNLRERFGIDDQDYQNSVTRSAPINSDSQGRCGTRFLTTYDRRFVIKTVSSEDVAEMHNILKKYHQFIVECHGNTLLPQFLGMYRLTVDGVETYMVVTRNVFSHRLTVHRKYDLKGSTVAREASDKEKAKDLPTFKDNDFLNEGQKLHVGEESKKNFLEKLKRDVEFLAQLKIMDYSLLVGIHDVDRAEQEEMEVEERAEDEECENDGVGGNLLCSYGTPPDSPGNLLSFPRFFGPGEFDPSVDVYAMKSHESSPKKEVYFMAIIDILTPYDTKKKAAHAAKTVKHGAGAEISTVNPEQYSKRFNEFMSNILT
As to the kind of experiment: KINOMEscan KD (Eurofins Discovery, DiscoverX). In kind it is binding. As for the experimental part: (§1) a Data were generated at Eurofins Discovery using DiscoverX KINOMEscanTM technology. Streptavidin-coated magnetic beads were treated with biotinylated small molecule ligands for 30 minutes at room temperature to generate affinity resins for kinase assays. The liganded beads were blocked with excess biotin and washed with blocking buffer (SeaBlock (Pierce), 1% BSA, 0.05% Tween 20, 1 mM DTT) to remove unbound ligand and to reduce non-specific binding. Binding reactions were assembled by combining kinases, liganded affinity beads, and test compounds in 1x binding buffer (20% SeaBlock, 0.17x PBS, 0.05% Tween 20, 6 mM DTT). Test compounds were prepared as 111X stocks in 100% DMSO. Kds were determined using an 11-point 3-fold compound dilution series with three DMSO control points. All compounds for Kd measurements are distributed by acoustic transfer (non-contact dispensing) in 100% DMSO. The compounds were then diluted directly into the assays such that the final concentration of DMSO was 0.9%. All reactions performed in polypropylene 384-well plate. Each was a final volume of 0.02 ml. The assay plates were incubated at room temperature with shaking for […]
(§2) room temperature with shaking for 30 minutes. The kinase concentration in the eluates was measured by qPCR. […]

The next data set addresses T3, PI5P4Kγ-WT (Homo sapiens, UniProt Q8TBX8).
T3 sequence (Q8TBX8 1-421): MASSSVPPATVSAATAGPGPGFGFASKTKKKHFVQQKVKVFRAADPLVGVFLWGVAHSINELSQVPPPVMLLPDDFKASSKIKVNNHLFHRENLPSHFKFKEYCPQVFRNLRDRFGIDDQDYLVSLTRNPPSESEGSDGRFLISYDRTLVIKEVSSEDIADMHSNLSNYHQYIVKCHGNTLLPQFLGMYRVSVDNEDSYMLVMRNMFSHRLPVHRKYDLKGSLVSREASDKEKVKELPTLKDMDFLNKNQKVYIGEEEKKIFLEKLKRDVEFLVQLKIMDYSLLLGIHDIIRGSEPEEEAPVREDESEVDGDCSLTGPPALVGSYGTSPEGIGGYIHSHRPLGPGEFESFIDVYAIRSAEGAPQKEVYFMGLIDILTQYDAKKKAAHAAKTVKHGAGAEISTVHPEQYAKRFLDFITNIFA
As to the kind of experiment: KINOMEscan KD (Eurofins Discovery, DiscoverX). Format: binding. As for the experimental part: as §1, §2

Data set [4] has as its target T2, PI5P4Kβ. As to the kind of experiment: Thermal shift assay. To be noted: read-out: ΔTm PI5P4Kβ, thermal shift, compound 63 μM.
In the next data set the target is ERK5 (Homo sapiens, UniProt Q13164). In words: Kinase panel, radiometric 33P filter binding. The settings on record: read-out: % activity remaining.
Another data set concerns the target BRSK1 (Homo sapiens, UniProt Q8TDC3). As to the kind of experiment: Kinase panel, radiometric 33P filter binding. To be noted: read-out: % activity remaining.
For the next data set, the target named is PDGFRA (Homo sapiens, UniProt P16234). In words: Kinase panel, radiometric 33P filter binding. To be noted: read-out: % activity remaining.

Read-outs that look alike come from different tables or passages of the source. A value given as a limit tells only on which side of the number the result lay.

For orientation: Kd means the concentration at which binding is half-saturated. A high value points to lower affinity. A word on the remaining activity: it is the signal under treatment as a percentage of the control signal.

Sequence of BRSK1 (Q8TDC3 whole entry): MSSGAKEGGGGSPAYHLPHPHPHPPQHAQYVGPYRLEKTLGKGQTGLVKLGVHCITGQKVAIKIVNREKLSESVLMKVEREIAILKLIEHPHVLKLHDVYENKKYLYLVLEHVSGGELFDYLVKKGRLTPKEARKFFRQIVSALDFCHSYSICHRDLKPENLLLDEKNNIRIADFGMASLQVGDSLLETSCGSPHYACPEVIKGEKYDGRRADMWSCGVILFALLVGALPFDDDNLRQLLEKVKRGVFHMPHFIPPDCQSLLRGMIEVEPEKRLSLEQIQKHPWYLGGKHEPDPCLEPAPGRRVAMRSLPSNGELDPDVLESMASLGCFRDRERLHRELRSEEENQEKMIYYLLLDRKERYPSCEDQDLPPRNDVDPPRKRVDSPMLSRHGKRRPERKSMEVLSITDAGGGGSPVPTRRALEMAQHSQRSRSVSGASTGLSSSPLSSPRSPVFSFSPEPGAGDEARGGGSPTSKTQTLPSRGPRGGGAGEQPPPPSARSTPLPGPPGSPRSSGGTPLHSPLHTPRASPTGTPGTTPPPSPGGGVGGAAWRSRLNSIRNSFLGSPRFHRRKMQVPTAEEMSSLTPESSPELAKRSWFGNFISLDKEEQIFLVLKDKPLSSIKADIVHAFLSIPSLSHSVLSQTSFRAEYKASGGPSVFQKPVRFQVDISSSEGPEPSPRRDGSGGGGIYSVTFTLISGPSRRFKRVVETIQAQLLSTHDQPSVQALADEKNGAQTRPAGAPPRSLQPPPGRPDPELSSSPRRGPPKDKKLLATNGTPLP
Sequence of PDGFRA (P16234 24-1089): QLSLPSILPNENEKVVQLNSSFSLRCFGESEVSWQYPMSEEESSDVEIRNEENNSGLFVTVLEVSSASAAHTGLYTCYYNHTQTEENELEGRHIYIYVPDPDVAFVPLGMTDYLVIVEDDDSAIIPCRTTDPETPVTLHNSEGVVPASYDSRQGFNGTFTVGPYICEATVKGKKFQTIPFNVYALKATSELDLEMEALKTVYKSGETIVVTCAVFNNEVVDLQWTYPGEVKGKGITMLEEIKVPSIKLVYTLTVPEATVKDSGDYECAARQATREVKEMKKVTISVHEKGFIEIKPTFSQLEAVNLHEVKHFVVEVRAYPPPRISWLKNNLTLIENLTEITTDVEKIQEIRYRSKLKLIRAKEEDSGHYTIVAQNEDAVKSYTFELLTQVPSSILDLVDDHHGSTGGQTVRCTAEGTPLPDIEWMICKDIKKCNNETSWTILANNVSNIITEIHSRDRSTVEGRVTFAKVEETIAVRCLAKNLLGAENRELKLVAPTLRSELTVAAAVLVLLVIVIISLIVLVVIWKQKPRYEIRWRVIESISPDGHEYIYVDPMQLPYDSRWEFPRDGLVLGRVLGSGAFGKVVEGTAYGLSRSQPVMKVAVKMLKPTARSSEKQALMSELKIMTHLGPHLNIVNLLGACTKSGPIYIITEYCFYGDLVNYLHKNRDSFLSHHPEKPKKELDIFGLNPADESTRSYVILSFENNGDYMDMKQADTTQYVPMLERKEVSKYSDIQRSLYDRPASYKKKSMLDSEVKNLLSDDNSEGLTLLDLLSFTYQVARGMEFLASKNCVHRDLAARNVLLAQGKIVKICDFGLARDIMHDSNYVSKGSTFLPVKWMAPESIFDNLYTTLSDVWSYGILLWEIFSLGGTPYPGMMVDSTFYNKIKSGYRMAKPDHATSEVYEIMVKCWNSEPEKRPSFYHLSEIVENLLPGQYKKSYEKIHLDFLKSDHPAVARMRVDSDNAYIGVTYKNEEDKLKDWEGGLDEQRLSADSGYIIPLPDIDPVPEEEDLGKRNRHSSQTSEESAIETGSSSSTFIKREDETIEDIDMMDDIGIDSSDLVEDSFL
Sequence of ERK5 (Q13164 whole entry): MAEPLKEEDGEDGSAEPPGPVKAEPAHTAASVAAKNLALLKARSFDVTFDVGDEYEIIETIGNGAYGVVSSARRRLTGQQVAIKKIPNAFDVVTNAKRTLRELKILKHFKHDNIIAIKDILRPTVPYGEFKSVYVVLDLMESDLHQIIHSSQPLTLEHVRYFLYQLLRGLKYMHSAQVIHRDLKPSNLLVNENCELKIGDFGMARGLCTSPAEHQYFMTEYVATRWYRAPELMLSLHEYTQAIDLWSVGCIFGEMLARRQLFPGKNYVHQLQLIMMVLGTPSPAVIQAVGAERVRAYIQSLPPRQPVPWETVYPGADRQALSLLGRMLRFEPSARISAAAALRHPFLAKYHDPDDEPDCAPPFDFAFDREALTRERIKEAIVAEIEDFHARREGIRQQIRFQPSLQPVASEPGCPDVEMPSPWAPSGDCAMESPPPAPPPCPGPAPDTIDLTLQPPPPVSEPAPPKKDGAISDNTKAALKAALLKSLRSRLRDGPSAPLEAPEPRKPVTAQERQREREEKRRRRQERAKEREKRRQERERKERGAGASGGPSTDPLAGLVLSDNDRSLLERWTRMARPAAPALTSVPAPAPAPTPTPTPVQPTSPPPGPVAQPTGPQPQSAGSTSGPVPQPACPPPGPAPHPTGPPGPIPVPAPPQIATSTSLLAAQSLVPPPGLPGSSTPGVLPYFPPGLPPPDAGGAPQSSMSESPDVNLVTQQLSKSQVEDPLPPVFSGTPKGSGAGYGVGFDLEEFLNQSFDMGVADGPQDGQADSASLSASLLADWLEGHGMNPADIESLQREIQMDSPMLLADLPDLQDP
From the text for BRSK1: (§3) filter binding assay using 33P-g-ATPat the MRC PPU International Centre for Kinase Profiling, University of
From the text for ERK5: as §3
From the text for PDGFRA: as §3
Kinase % activity remaining s.d.

As for `FC(F)(F)c1ccccc1-c1nc(NCc2cccs2)c2ccccc2n1` [Compound 1, NIH-12848, reference compound], the IC50 on PI5P4Kγ+ (new data, read-out: PI5P4Kγ+ IC50) was 790 nM. At PI5P4Kγ+, the “PI5P4Kγ+ LE” value is on record as 0.32. Also, in data set [1], the half-life at 1 µM turned out to be 21 min. Also, the fraction unbound at 4 h, 10 µM in “Plasma protein binding” was < 0.01. Moreover, the chromatographic logD in [2] came out at 6.3. The Kd was > 30000 nM on PI5P4Kβ [3] and 4000 nM on PI5P4Kγ-WT. Further, the ΔTm at 63 µM on PI5P4Kβ [4] is 0.6 ± 0.3 °C.

As to `CC(C)c1ccccc1-c1nc(NCc2ccccn2)c2c(ccn2C)n1` [Compound 40], on PI5P4Kγ+ (mutant PI5P4Kγ+ construct, read-out: PI5P4Kγ+ pIC50 (converted)), the IC50 is 631 nM. For the same compound, the “PI5P4Kγ+ LE” value at PI5P4Kγ+ came to 0.32. Moreover, the half-life at 1 µM in data set [1] came to 47 min. Also, the fraction unbound at 4 h, 10 µM in the data set “Plasma protein binding” was 0.01. Moreover, the chromatographic logD in data set [2] was found to be 4.5. Besides, the Kd at PI5P4Kβ [3] was > 30000 nM; at PI5P4Kγ-WT, 68 nM. The figures for the remaining activity at 10 µM at ERK5, at BRSK1 and at PDGFRA were 138%, 115% and 100%, respectively.

These data come from PMC9097471, “Development of Selective Phosphatidylinositol 5-Phosphate 4-Kinase γ Inhibitors with a Non-ATP-competitive, Allosteric Binding Mode” (Journal of Medicinal Chemistry, 2022).
